Experimental data taken from patent publication US20230073777A1, “CYCLIC-AMP RESPONSE ELEMENT BINDING PROTEIN (CBP) AND/OR ADENOVIRAL E1A BINDING PROTEIN OF 300 KDA (P300) DEGRADATION COMPOUNDS AND METHODS OF USE” (CULLGEN (SHANGHAI), INC., priority 2019, published 2023).
Like-named read-outs stand apart in the source and are kept apart here.

Key:
LNCaP cells = assay: LNCaP cell viability assay (CellTiter-Glo); format: cell-based; conditions: for IC50: Homo sapiens, 72 h, LNCaP prostate cancer cell viability inhibition, 3 days
Procedure, shortened: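 Three-day treatment of LNCaP cells (5000 per well) across a 12-point, 3-fold dilution series starting at 10 μM. ATP luminescence (CellTiter-Glo) relative to untreated controls gave dose-response curves fitted nonlinearly for IC50.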

P300 = P300 (Homo sapiens, UniProt Q09472); assay: Immunoblotting of P300 protein levels in LNCaP or 22RV1 cells; format: cell-based; design: LNCaP or 22RV1 cells that express CBP/P300 proteins were treated with GNE-781 or the bivalent compounds; endogenous in cells; host or cells: LNCaP (clone FGC) or 22RV1 cells; conditions: read-out: Degradation (10 nM)
Procedure, shortened: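 P300/CBP levels quantified by chemiluminescent immunoblot band densitometry, normalized against tubulin or vinculin loading controls. Lysates came from LNCaP or 22RV1 cells exposed to compounds or DMSO vehicle for indicated times.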

[1] = percentage of inhibition of p300 at 10 nM (Table 3)
[2] = percentage of inhibition of p300 at 10 nM (Table 2)

Sequence of P300 (Q09472 whole entry): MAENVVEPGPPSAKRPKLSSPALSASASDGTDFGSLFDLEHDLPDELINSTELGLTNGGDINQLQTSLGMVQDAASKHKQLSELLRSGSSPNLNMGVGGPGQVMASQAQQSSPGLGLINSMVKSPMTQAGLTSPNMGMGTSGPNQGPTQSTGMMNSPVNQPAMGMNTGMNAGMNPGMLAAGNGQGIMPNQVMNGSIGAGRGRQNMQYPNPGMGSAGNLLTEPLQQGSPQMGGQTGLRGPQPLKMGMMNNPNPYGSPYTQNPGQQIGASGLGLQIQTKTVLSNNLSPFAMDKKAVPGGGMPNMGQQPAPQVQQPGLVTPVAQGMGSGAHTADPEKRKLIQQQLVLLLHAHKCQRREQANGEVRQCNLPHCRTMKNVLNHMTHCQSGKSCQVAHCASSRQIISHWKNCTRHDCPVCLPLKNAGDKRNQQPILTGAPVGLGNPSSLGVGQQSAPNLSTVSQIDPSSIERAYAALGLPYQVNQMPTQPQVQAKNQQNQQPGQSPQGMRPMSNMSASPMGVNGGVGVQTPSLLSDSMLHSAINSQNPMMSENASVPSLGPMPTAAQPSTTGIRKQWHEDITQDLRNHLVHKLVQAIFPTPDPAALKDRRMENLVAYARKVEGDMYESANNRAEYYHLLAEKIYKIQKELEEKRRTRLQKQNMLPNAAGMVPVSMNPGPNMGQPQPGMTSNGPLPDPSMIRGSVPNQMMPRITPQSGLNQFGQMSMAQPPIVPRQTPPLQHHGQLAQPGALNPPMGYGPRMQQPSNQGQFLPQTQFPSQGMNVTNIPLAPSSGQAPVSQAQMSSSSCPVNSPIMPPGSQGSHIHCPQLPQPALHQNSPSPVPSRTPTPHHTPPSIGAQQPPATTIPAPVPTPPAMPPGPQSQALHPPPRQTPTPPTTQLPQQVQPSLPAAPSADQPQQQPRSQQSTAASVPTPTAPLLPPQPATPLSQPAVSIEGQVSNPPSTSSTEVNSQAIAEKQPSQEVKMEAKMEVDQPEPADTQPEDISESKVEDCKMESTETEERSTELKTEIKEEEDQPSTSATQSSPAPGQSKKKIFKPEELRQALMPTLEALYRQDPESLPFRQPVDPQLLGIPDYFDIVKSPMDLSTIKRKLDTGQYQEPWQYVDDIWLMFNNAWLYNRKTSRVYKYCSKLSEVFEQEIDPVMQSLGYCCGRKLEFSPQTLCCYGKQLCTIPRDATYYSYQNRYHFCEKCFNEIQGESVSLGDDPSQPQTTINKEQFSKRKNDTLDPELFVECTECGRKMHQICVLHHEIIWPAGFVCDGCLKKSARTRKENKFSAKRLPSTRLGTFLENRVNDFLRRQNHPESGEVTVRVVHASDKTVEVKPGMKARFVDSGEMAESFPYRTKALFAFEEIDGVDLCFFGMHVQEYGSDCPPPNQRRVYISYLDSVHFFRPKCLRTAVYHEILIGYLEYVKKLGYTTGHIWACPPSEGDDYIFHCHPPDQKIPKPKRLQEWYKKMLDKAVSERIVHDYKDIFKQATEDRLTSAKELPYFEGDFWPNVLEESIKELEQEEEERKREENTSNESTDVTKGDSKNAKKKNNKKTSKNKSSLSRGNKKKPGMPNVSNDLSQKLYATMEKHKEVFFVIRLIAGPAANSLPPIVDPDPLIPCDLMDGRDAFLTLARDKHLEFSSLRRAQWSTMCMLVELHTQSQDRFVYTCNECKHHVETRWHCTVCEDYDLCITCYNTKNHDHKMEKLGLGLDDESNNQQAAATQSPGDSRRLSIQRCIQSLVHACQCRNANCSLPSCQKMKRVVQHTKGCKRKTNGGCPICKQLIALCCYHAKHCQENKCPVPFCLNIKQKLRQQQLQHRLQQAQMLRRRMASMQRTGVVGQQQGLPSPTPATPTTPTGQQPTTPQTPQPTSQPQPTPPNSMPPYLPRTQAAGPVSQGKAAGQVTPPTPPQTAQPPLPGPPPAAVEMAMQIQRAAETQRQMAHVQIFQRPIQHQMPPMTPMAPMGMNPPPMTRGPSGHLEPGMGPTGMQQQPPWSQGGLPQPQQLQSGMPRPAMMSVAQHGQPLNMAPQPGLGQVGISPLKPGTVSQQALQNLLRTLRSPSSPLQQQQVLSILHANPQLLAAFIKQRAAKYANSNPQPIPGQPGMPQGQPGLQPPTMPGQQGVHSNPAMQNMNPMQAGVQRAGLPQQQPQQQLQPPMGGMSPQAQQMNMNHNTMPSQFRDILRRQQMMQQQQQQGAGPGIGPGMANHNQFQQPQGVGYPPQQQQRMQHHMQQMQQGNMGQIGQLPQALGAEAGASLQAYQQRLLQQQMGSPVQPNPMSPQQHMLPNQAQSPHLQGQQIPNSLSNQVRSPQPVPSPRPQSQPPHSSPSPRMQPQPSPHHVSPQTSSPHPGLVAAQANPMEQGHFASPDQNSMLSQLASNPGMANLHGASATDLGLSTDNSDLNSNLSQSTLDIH

Compound | IC50 (LNCaP cells; CellTiter-Glo (Table 3)) [nM] | inhibition at 0.01 µM (P300; [1]) [%] | IC50 (LNCaP cells; CellTiter-Glo (Table 2)) [nM] | inhibition at 0.01 µM (P300; [2]) [%] | viability of LNCaP cells (LNCaP cells; from 10 μM, 12-point 3-fold serial dilution, 3 days (FIG. 4))
CNC(=O)N1CCc2c(c(N3CCCc4cc(-c5cnn(CC(=O)NCCCCCNc6ccc7c(c6)C(=O)N(C6CCC(=O)NC6=O)C7=O)c5)c(C(F)F)cc43)nn2C2CCOCC2)C1 (stereo not shown) [P-019] |  |  | 14.7 | 50 to 80 | dose-dependently suppressed viability
CNC(=O)N1CCc2c(c(N3CCCc4cc(-c5cnn(CC(=O)NCCOCCOCCOCCNc6cccc7c6C(=O)N(C6CCC(=O)NC6=O)C7=O)c5)c(C(F)F)cc43)nn2C2CCOCC2)C1 (stereo not shown) [P-023, 3-(7-(Difluoromethyl)-6-(1-(14-((2-(2,6-dioxopiperidin-3-yl)-1,3-dioxoisoindolin-4-yl)amino)-2-oxo-6,9,12-trioxa-3-azatetradecyl)-1H-pyrazol-4-yl)-3,4-dihydroquinolin-1(2H)-yl)-N-methyl-1-(tetrahydro-2H-pyran-4-yl)-1,4,6,7-tetrahydro-5H-pyrazolo[4,3-c]pyridine-5-carboxamide] |  |  | 357 | < 20 | 
CNC(=O)N1CCc2c(c(N3CCCc4cc(-c5cnn(C)c5)c(C(F)F)cc43)nn2C2CCN(CCCCCCOc3cccc4c3C(=O)N(C3CCC(=O)NC3=O)C4=O)CC2)C1 (stereo not shown) [P-091, 3-(7-(difluoromethyl)-6-(1-methyl-1H-pyrazol-4-yl)-3,4-dihydroquinolin-1(2H)-yl)-1-(1-(6-((2-(2,6-dioxopiperidin-3-yl)-1,3-dioxoisoindolin-4-yl)oxy)hexyl)piperidin-4-yl)-N-methyl-1,4,6,7-tetrahydro-5H-pyrazolo[4,3-c]pyridine-5-carboxamide] | 2.1 | > 80 |  |  | 
CNC(=O)N1CCc2c(c(N3CCCc4cc(-c5cnn(C)c5)c(C(F)F)cc43)nn2C2CCN(C(=O)CCC(=O)N[C@H](C(=O)N3C[C@H](O)C[C@H]3C(=O)NCc3ccc(-c4scnc4C)cc3)C(C)(C)C)CC2)C1 [P-056, 3-(7-(Difluoromethyl)-6-(1-methyl-1H-pyrazol-4-yl)-3,4-dihydroquinolin-1(2H)-yl)-1-(1-(4-(((S)-1-((2S,4R)-4-hydroxy-2-((4-(4-methylthiazol-5-yl)benzyl)carbamoyl)pyrrolidin-1-yl)-3,3-dimethyl-1-oxobutan-2-yl)amino)-4-oxobutanoyl)piperidin-4-yl)-N-methyl-1,4,6,7-tetrahydro-5H-pyrazolo[4,3-c]pyridine-5-carboxamide] | 75.6 | < 20 |  |  | 
CNC(=O)N1CCc2c(c(N3CCCc4cc(-c5cnn(C)c5)c(C(F)F)cc43)nn2C2CCN(C(=O)CCOCCOCCNc3ccc4c(c3)C(=O)N(C3CCC(=O)NC3=O)C4=O)CC2)C1 (stereo not shown) [P-009, 3-(7-(difluoromethyl)-6-(1-methyl-1H-pyrazol-4-yl)-3,4-dihydroquinolin-1(2H)-yl)-1-(1-(3-(2-(2-((2-(2,6-dioxopiperidin-3-yl)-1,3-dioxoisoindolin-5-yl)amino)ethoxy)ethoxy)propanoyl)piperidin-4-yl)-N-methyl-1,4,6,7-tetrahydro-5H-pyrazolo[4,3-c]pyridine-5-carboxamide] |  |  | 114 | 20 to 50 | 
CNC(=O)N1CCc2c(c(N3CCCc4cc(-c5cnn(C)c5)c(C(F)F)cc43)nn2C2CCN(C(=O)CCCCCNc3ccc4c(c3)C(=O)N(C3CCC(=O)NC3=O)C4=O)CC2)C1 (stereo not shown) [P-005, 3-(7-(difluoromethyl)-6-(1-methyl-1H-pyrazol-4-yl)-3,4-dihydroquinolin-1(2H)-yl)-1-(1-(6-((2-(2,6-dioxopiperidin-3-yl)-1,3-dioxoisoindolin-5-yl)amino)hexanoyl)piperidin-4-yl)-N-methyl-1,4,6,7-tetrahydro-5H-pyrazolo[4,3-c]pyridine-5-carboxamide] |  |  | 4 | > 80 | 
CNC(=O)N1CCc2c(c(N3CCCc4cc(-c5cnn(CC(=O)NCCOCCOCCOCC(=O)N[C@H](C(=O)N6C[C@H](O)C[C@H]6C(=O)NCc6ccc(-c7scnc7C)cc6)C(C)(C)C)c5)c(C(F)F)cc43)nn2C2CCOCC2)C1 [P-076, 3-(7-(Difluoromethyl)-6-(1-((S)-16-((2S,4R)-4-hydroxy-2-((4-(4-methylthiazol-5-yl)benzyl)carbamoyl)pyrrolidine-1-carbonyl)-17,17-dimethyl-2,14-dioxo-6,9,12-trioxa-3,15-diazaoctadecyl)-1H-pyrazol-4-yl)-3,4-dihydroquinolin-1(2H)-yl)-N-methyl-1-(tetrahydro-2H-pyran-4-yl)-1,4,6,7-tetrahydro-5H-pyrazolo[4,3-c]pyridine-5-carboxamide] | > 10000 | < 20 |  |  | 

More lines, main results first:

IC50 (LNCaP cells; CellTiter-Glo (Table 3)) [nM] | inhibition at 0.01 µM (P300; [1]) [%] | IC50 (LNCaP cells; CellTiter-Glo (Table 2)) [nM] | inhibition at 0.01 µM (P300; [2]) [%] | Compound | viability of LNCaP cells (LNCaP cells; from 10 μM, 12-point 3-fold serial dilution, 3 days (FIG. 4))
42.1 | > 80 |  |  | CNC(=O)N1CCc2c(c(N3CCCc4cc(-c5cnn(C)c5)c(C(F)F)cc43)nn2C2CCN(C(=O)CCCCNc3ccc4c(c3)n(C)c(=O)n4C3CCC(=O)NC3=O)CC2)C1 (stereo not shown) [P-125, 3-(7-(Difluoromethyl)-6-(1-methyl-1H-pyrazol-4-yl)-3,4-dihydroquinolin-1(2H)-yl)-1-(1-(5-((1-(2,6-dioxopiperidin-3-yl)-3-methyl-2-oxo-2,3-dihydro-1H-benzo[d]imidazol-5-yl)amino)pentanoyl)piperidin-4-yl)-N-methyl-1,4,6,7-tetrahydro-5H-pyrazolo[4,3-c]pyridine-5-carboxamide] | 
0.5 | > 80 |  |  | CC(=O)N1CCc2c(c(N3CCCc4cc(-c5cnn(C)c5)c(C(F)F)cc43)nn2C2CCN(C(=O)CCCCCCNc3ccc4c(c3)n(C)c(=O)n4C3CCC(=O)NC3=O)CC2)C1 (stereo not shown) [P-130, 3-(5-((7-(4-(5-acetyl-3-(7-(difluoromethyl)-6-(1-methyl-1H-pyrazol-4-yl)-3,4-dihydroquinolin-1(2H)-yl)-4,5,6,7-tetrahydro-1H-pyrazolo[4,3-c]pyridin-1-yl)piperidin-1-yl)-7-oxoheptyl)amino)-3-methyl-2-oxo-2,3-dihydro-1H-benzo[d]imidazol-1-yl)piperidine-2,6-dione] | 
67.7 | 20 to 50 |  |  | CNC(=O)N1CCc2c(c(N3CCCc4cc(-c5cnn(C)c5)c(C(F)F)cc43)nn2C2CCN(C(=O)CCCCCNc3cccc4c3CN(C3CCC(=O)NC3=O)C4=O)CC2)C1 (stereo not shown) [P-095, 3-(7-(Difluoromethyl)-6-(1-methyl-1H-pyrazol-4-yl)-3,4-dihydroquinolin-1(2H)-yl)-1-(1-(6-((2-(2,6-dioxopiperidin-3-yl)-1-oxoisoindolin-4-yl)amino)hexanoyl)piperidin-4-yl)-N-methyl-1,4,6,7-tetrahydro-5H-pyrazolo[4,3-c]pyridine-5-carboxamide] | 
156 | < 20 |  |  | CC(=O)N1CCc2c(c(N3CCCc4cc(-c5cnn(C)c5)c(C(F)F)cc43)nn2C2CCN(C(=O)CN3CCC(COc4cccc5c4C(=O)N(C4CCC(=O)NC4=O)C5=O)CC3)CC2)C1 (stereo not shown) [P-168, 4-((1-(2-(4-(5-Acetyl-3-(7-(difluoromethyl)-6-(1-methyl-1H-pyrazol-4-yl)-3,4-dihydroquinolin-1(2H)-yl)-4,5,6,7-tetrahydro-1H-pyrazolo[4,3-c]pyridin-1-yl)piperidin-1-yl)-2-oxoethyl)piperidin-4-yl)methoxy)-2-(2,6-dioxopiperidin-3-yl)isoindoline-1,3-dione] | 
28.8 | > 80 |  |  | CC(=O)N1CCc2c(c(N3CCCc4cc(-c5cnn(C)c5)c(C(F)F)cc43)nn2C2CCN(C(=O)CCCCCOc3cccc4c3CN(C3CCC(=O)NC3=O)C4=O)CC2)C1 (stereo not shown) [P-121, 3-(4-((6-(4-(5-Acetyl-3-(7-(difluoromethyl)-6-(1-methyl-1H-pyrazol-4-yl)-3,4-dihydroquinolin-1(2H)-yl)-4,5,6,7-tetrahydro-1H-pyrazolo[4,3-c]pyridin-1-yl)piperidin-1-yl)-6-oxohexyl)oxy)-1-oxoisoindolin-2-yl)piperidine-2,6-dione] | 
3.7 | > 80 |  |  | CC(=O)N1CCc2c(c(N3CCCc4cc(-c5cnn(C)c5)c(C(F)F)cc43)nn2C2CCN(C(=O)CCCCCCNc3cccc4nnn(C5CCC(=O)NC5=O)c(=O)c34)CC2)C1 (stereo not shown) [P-153, 3-(5-((7-(4-(5-acetyl-3-(7-(difluoromethyl)-6-(1-methyl-1H-pyrazol-4-yl)-3,4-dihydroquinolin-1(2H)-yl)-4,5,6,7-tetrahydro-1H-pyrazolo[4,3-c]pyridin-1-yl)piperidin-1-yl)-7-oxoheptyl)amino)-4-oxobenzo[d] [1,2,3]triazin-3 (4H)-yl)piperidine-2,6-dione] | 
31.1 | > 80 |  |  | CC(=O)N1CCc2c(c(N3CCCc4cc(-c5cnn(C)c5)c(C(F)F)cc43)nn2C2CCN(C(=O)CCCCCNc3cccc4c3n(C)c(=O)n4C3CCC(=O)NC3=O)CC2)C1 (stereo not shown) [P-110, 3-(4-((6-(4-(5-acetyl-3-(7-(difluoromethyl)-6-(1-methyl-1H-pyrazol-4-yl)-3,4-dihydroquinolin-1(2H)-yl)-4,5,6,7-tetrahydro-1H-pyrazolo[4,3-c]pyridin-1-yl)piperidin-1-yl)-6-oxohexyl)amino)-3-methyl-2-oxo-2,3-dihydro-1H-benzo[d]imidazol-1-yl)piperidine-2,6-dione] | 
1.7 | > 80 |  |  | CC(=O)N1CCc2c(c(N3CCCc4cc(-c5cnn(C)c5)c(C(F)F)cc43)nn2C2CCN(C(=O)CCCCCCCNc3ccc4c(c3)C(=O)N(C3CCC(=O)NC3=O)C4=O)CC2)C1 (stereo not shown) [P-119, 5-((8-(4-(5-acetyl-3-(7-(difluoromethyl)-6-(1-methyl-1H-pyrazol-4-yl)-3,4-dihydroquinolin-1(2H)-yl)-4,5,6,7-tetrahydro-1H-pyrazolo[4,3-c]pyridin-1-yl)piperidin-1-yl)-8-oxooctyl)amino)-2-(2,6-dioxopiperidin-3-yl)isoindoline-1,3-dione] | 
